Reference: PMC8362126, “Proteolysis Targeting Chimera (PROTAC) for Macrophage Migration Inhibitory Factor (MIF) Has Anti‐Proliferative Activity in Lung Cancer Cells” (Angewandte Chemie (International Ed. in English), 2021)
“Also recorded” adds a separate entry of the source.

Legend:
MIF = molecular target: T1, MIF (Homo sapiens, UniProt P14174); assay: MIF catalyzed 4-HPP tautomerization assay; assay type: biochemical; conditions: for IC50: 4-HPP conversion assay; for Ki: MIF catalyzed 4-HPP tautomerization, n=3
T1 sequence (P14174 2-115 limits assumed): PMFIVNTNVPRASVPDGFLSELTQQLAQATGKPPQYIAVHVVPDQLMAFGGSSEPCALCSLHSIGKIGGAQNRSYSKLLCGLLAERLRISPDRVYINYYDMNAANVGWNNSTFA
Method: S2. MIF Tautomerase activity IC50 study
The protocol for measuring inhibition of MIF tautomerase enzyme activity and enzyme kinetics was described previously.[8] Briefly, 180 µL of a 500 nM MIF solution in boric acid buffer (435 mM, pH 6.2) was mixed with 10 µL of a 20 mM EDTA solution in demiwater and 10 µL of a solution of the desired compound dissolved in DMSO or blanc DMSO. This mixture was pre-incubated at room temperature for 10 min. Next, 50 µL of this mixture was mixed with 50 µL of a 1 mM 4-HPP solution in ammonium acetate buffer (50 mM, pH 6.0). Subsequently, MIF tautomerase activity was monitored by measuring the increase of UV absorbance at 306 nm over time. MIF tautomerase activity in the presence a blank DMSO dilution was set to 100% enzyme activity. Non-catalyzed conversion of the substrate in absence of MIF was set to 0%.
Data from the first three minutes were used to calculate the initial velocities. All experiments were repeated three times and calculations were performed with the program GraphPad Prism.
Table S1. 4-HPP conversion assay results of MIF PROTACs
(also on this page, place not known: p rotocol previously. subs trate log [MD-1] (10^-6 M) Activity of MIF tautomerase(%) -2 -1 0 1 2 0 50 100 log [MD-2] (10^-6 M) Activity of MIF tautomerase(%) -2 -1 0 1 2 0 50 100)

A549 cells = assay: CyQUANT cell proliferation assay; assay type: cell-based, human; conditions: 72 hours; for effect on cell proliferation: concentrations up to 20 μM
Method: S8. Cell growth, cell cycle and pERK signaling study
Cell proliferation was measured with the CyQUANT® Direct Cell Proliferation Assay Kit (Thermo Fisher, #C35011). A549 cells were cultured in 96-well plates at a density of 1,000 cells/well and treated with different concentrations of MIF PROTAC (0.02-20 μM) for 72 h.
Cells were incubated with detection reagent (100 μL) for 60 min at 37 °C with 5% CO2. The fluorescence of each well was read at 485/535nm by plate reader (BioTek).
Figure S8. Cells were seeded with a density of 1000 cells per well in a 96-well plate. After overnight incubation, the cells were treated with various concentration of MD13 for 72 hours.
The resulting cells were quantified by CyQUANT® cell proliferation assays and compared with the vehicle (DMSO) control (n=3). […]
(also on this page, place not known: (0.02 -20 CO 2. (20 µM) 4 (20 µM) µM 20 µM 0.01 µM 0.08 µM 0.74 µM 6.7 µM 20 µM 0 50 100 Cell (%) H441 n.s. * * ** *** * n.s. MD15 96 -well MD13 proliferation control 96 -well round - 2 3) […]
(1 picture or pasted object on this page, not shown here)

A549 cell spheroids = assay: 3D tumor spheroid assay; assay type: cell-based, human; conditions: 12 days; for influence on spheroid tumor growth: 5 μM
Method: A 3D spheroid model was employed to investigate the effect of longer term MD13 treatment in a more complex model for tumor growth. The 3D spheroid model was established using A549 cancer cells by a method adapted from Feng et al.[48] The spheroids were grown over a 12‐day period in absence or presence of PROTAC MD13. Each spheroid was prepared from about 1000 A549 cells. After three‐day incubation, these spheroids were treated with 1, 2, or 5 μM of MD13 with 72 hours intervals over 12 days. Spheroid growth was monitored by measuring the diameter and this was compared to day 0 of the treatment. The tumor spheroids in MD13 treated groups were significant smaller compared to the control group (Figure 5 B and Figure S9). With continuous exposure to 1, 2, or 5 μM of MD13 for 12 days, the growth of the spheroid tumor volume was inhibited by 42 %, 53 %, and 81 % compared with control group, respectively. […]
Tumor spheroid assay. A549 cells (1000 cells/well) were seeded onto a 96-well round-bottomed ultra low attachment plate (Corning). After 2 days of incubation without disturbance, the spheroid was treated with indicated compound every 3 days. […]
(1 picture or pasted object on this page, not shown here) […]
inverted microscope (Nikon Eclipse Ti) connected with a NIS-elements software. The data were analyzed and plotted with Graphpad Prism8. […]
cells were seeded in an ultralow attachment 96-well round-bottomed plate (1000 cells/well) to generate tumor spheroids (a single spheroid per well). After initiation, the spheroids were treated with different compounds at the indicated concentrations every three days. DMSO was used as vehicle control. The day of the first treatment was indicated as day 0. (A) Representative images were obtained at the indicated intervals using an inverted microscope. Scale bar: 500 μm. (B) Analysis was carried out using NIS-Elements AR 3.1 software, and growth curves were obtained relative to the untreated spheroids (day 0) and plotted with GraphPad Prism 8. Values are shown as means ± SD (n = 3 spheroids/time point, **p < 0.01 vs control). […]

SMILES	IC50 (MIF) [µM]	Ki (MIF) [µM]	inhibition at 20 µM (A549 cells; Homo sapiens, 20 μM, 2D culture) [%]	inhibition at 1 µM (A549 cell spheroids; Homo sapiens, A549, 1 μM, treated every three days, read-out: inhibition of growth of spheroid tumor volume) [%]	inhibition at 2 µM (A549 cell spheroids; Homo sapiens, A549, 2 μM, treated every three days, read-out: inhibition of growth of spheroid tumor volume) [%]	inhibition at 5 µM (A549 cell spheroids; Homo sapiens, A549, 5 μM, treated every three days, read-out: inhibition of growth of spheroid tumor volume) [%]	effect on cell proliferation (A549 cells)	influence on spheroid tumor growth (A549 cell spheroids)
O=C1CCC(N2C(=O)c3cccc(NCCCCCCCC(=O)Nc4ccc(N5Cc6ccc(O)cc6OC5=O)cc4)c3C2=O)C(=O)N1 (stereo not shown) [MD13]	0.106 ± 0.007	0.071 ± 0.005	~50	42	53	81		
CN1C(=O)CCC(N2C(=O)c3cccc(NCCCCCCCC(=O)Nc4ccc(N5Cc6ccc(O)cc6OC5=O)cc4)c3C2=O)C1=O (stereo not shown) [MD15]	0.083 ± 0.018	0.055 ± 0.012					almost no inhibition; also recorded: no or little effect	no significant influence
COc1ccc(N2Cc3ccc(O)cc3OC2=O)cc1OC [compound 3]		0.103 ± 0.01					no effect; also recorded: no or little effect	no significant influence
